Measurements from patent US10894784B2, “Heteroarylbenzimidazole compounds” (BAYER PHARMA AKTIENGESELLSCHAFT, priority 2015, dated 2021).
Where two headings read alike, the source gives them in different places.

Target: TBK1 (Homo sapiens (Human), UniProt Q9UHD2)
Experiment: TBK1 low ATP kinase assay (in vitro assay 1)
Assay type: biochemical
[1] = in vitro assay 1, read-out: TBK1 low ATP kinase assay IC50
[2] = TBK1 low ATP kinase assay IC50, in vitro assay 1

Chain of TBK1 (Q9UHD2 whole entry): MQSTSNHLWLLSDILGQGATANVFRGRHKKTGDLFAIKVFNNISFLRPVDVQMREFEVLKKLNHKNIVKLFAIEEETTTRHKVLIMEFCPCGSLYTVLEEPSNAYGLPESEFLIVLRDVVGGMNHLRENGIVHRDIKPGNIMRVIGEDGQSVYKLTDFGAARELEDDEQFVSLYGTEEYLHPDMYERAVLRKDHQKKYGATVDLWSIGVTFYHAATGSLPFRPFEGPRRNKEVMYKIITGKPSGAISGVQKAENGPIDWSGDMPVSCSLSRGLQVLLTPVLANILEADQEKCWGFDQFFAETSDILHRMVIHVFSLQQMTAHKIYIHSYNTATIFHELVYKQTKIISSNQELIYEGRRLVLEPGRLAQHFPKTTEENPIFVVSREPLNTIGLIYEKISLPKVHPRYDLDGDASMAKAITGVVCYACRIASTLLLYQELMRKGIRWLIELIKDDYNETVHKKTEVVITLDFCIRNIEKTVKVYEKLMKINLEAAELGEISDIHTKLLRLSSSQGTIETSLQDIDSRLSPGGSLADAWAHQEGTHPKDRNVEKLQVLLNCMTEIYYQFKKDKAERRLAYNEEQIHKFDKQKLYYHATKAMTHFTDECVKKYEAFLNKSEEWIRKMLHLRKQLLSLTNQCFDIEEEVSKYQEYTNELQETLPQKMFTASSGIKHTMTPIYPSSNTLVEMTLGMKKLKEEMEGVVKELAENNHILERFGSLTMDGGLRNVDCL

Row | SMILES | IC50 [1] [nM] | IC50 [2] [nM]
1 | CC(C)Oc1cncnc1-c1ccc2nc(Nc3cc(C(C)N4CCN(C(=O)C5CC5)CC4)ccn3)[nH]c2c1 (single isomer, unassigned) [Example 36.03, cyclopropyl(4-{(1R or 1S)-1-[2-({6-[5-(propan-2-yloxy)pyrimidin-4-yl]-1H-benzimidazol-2-yl}amino)pyridin-4-yl]ethyl}piperazin-1-yl)methanone] | 2.13 | 
2 | CC(c1ccnc(Nc2nc3ccc(-c4cnn(CC5CCC5)c4)c(Cl)c3[nH]2)c1)N1CCN(C(=O)CC(F)(F)F)CC1 (single isomer, unassigned) [Example 75.02, 1-(4-{(1R or 1S)-1-[2-({7-chloro-6-[1-(cyclobutylmethyl)-1H-pyrazol-4-yl]-1H-benzimidazol-2-yl}amino)pyridin-4-yl]ethyl}piperazin-1-yl)-3,3,3-trifluoropropan-1-one] | 1.4 | 
3 | Cc1noc(-c2ccc3nc(Nc4cc(C(C)N5CCN(C(=O)C6CC6)CC5)ccn4)[nH]c3c2)n1 (racemic) [Example 16.05.03, (rac)-cyclopropyl{4-[1-(2-{[6-(3-methyl-1,2,4-oxadiazol-5-yl)-1H-benzimidazol-2-yl]amino}pyridin-4-yl)ethyl]piperazin-1-yl}methanone] | 43.1 | 
4 | Cc1cc(-c2ccc3nc(Nc4cc(C(C)N5CCN(C(=O)CC6CC6)CC5)ccn4)[nH]c3c2)ncn1 (racemic) [Example 30.02.04, (rac)-2-cyclopropyl-1-{4-[1-(2-{[6-(6-methylpyrimidin-4-yl)-1H-benzimidazol-2-yl]amino}pyridin-4-yl)ethyl]piperazin-1-yl}ethanone] | 9.35 | 
5 | Cc1cc(-c2ccc3nc(Nc4cc(C(C)N5CCN(C(=O)CC(F)(F)F)CC5)ccn4)[nH]c3c2)ncn1 (single isomer, unassigned) [Example 30.03.01.A, 3,3,3-trifluoro-1-{4-[(1R or 1S)-1-(2-{[6-(6-methylpyrimidin-4-yl)-1H-benzimidazol-2-yl]amino}pyridin-4-yl)ethyl]piperazin-1-yl}propan-1-one] |  | 18
6 | O=C(CC(F)(F)F)N1CCN(Cc2ccnc(Nc3nc4ccc(-c5ccnc(F)c5)cc4[nH]3)c2)CC1 [Example 137.02, 3,3,3-trifluoro-1-{4-[(2-{[6-(2-fluoropyridin-4-yl)-1H-benzimidazol-2-yl]amino}pyridin-4-yl)methyl]piperazin-1-yl}propan-1-one] | 5.8 | 
7 | CCOc1ncnc(-c2ccc3nc(Nc4cc(CN5CCN(C(=O)C6(C(F)(F)F)CC6)CC5)ccn4)[nH]c3c2)c1OC [Example 167.04] | 23.7 | 
8 | O=C(C1CC1)N1CCN(Cc2ccnc(Nc3nc4ccc(-c5ncnc6c5COC6)cc4[nH]3)c2)CC1 [Example 182.03, cyclopropyl{4-[(2-{[6-(5,7-dihydrofuro[3,4-d]pyrimidin-4-yl)-1H-benzimidazol-2-yl]amino}pyridin-4-yl)methyl]piperazin-1-yl}methanone] | 136 | 
9 | CC(c1ccnc(Nc2nc3ccc(-c4cc(N(C)C)ncn4)cc3[nH]2)c1)N1CCN(C(=O)C2CC2)CC1 (single isomer, unassigned) [Example 100.03, cyclopropyl(4-{(1R or 1S)-1-[2-({6-[6-(dimethylamino)pyrimidin-4-yl]-1H-benzimidazol-2-yl}amino)pyridin-4-yl]ethyl}piperazin-1-yl)methanone] | 2 | 
10 | O=C(C1CC1)N1CCN(Cc2ccnc(Nc3nc4ccc(-c5cc(OCC6CC6)ncn5)cc4[nH]3)c2)CC1 [Example 80.03, cyclopropyl(4-{[2-({6-[6-(cyclopropylmethoxy)pyrimidin-4-yl]-1H-benzimidazol-2-yl}amino)pyridin-4-yl]methyl}piperazin-1-yl)methanone] | 2.9 | 
11 | COCCCNc1cc(-c2ccc3nc(Nc4cc(CN5CCN(C(=O)OC(C)(C)C)CC5)ccn4)[nH]c3c2)ncn1 [Example 90.01, tert-butyl 4-({2-[(6-{6-[(3-methoxypropyl)amino]pyrimidin-4-yl}-1H-benzimidazol-2-yl)amino]pyridin-4-yl}methyl)piperazine-1-carboxylate] | 5.7 | 
12 | CC(c1ccnc(Nc2nc3ccc(-c4cnn(CC5CC5(C)C)c4)cc3[nH]2)c1)N1CCN(C(=O)CC(F)(F)F)CC1 (single isomer, unassigned) [Example 67.02, 1-{4-[(1R or 1S)-1-(2-{[6-(1-{[(1RS)-2,2-dimethylcyclopropyl]methyl}-1H-pyrazol-4-yl)-1H-benzimidazol-2-yl]amino}pyridin-4-yl)ethyl]piperazin-1-yl}-3,3,3-trifluoropropan-1-one] | 2.9 | 
13 | CN(C)c1ccnc(-c2ccc3nc(Nc4cc(CN5CCN(C(=O)OC(C)(C)C)CC5)ccn4)[nH]c3c2)n1 [Example 181.01, tert-butyl 4-{[2-({6-[4-(dimethylamino)pyrimidin-2-yl]-1H-benzimidazol-2-yl}amino)pyridin-4-yl]methyl}piperazine-1-carboxylate] | 791 | 
14 | O=C(C1CC1)N1CCN(Cc2ccnc(Nc3nc4ccc(-c5nc(C6CC6)no5)cc4[nH]3)c2)CC1 [Example 17.05, cyclopropyl{4-[(2-{[6-(3-cyclopropyl-1,2,4-oxadiazol-5-yl)-1H-benzimidazol-2-yl]amino}pyridin-4-yl)methyl]piperazin-1-yl}methanone] | 38.2 | 
15 | Cc1cc(-c2ccc3nc(Nc4cc(CN5CCN(C(=O)CC(F)(F)F)CC5)ccn4)[nH]c3c2)cc(C#N)n1 [Example 136.02, 6-methyl-4-{2-[(4-{[4-(3,3,3-trifluoropropanoyl)piperazin-1-yl]methyl}pyridin-2-yl)amino]-1H-benzimidazol-6-yl}pyridine-2-carbonitrile] | 38 | 
16 | COc1c(-c2ccc3nc(Nc4cc(CN5CCN(C(=O)OC(C)(C)C)CC5)ccn4)[nH]c3c2)ncnc1N(C)C [Example 107.01.01, tert-butyl 4-{[2-({6-[6-(dimethylamino)-5-methoxypyrimidin-4-yl]-1H-benzimidazol-2-yl}amino)pyridin-4-yl]methyl}piperazine-1-carboxylate] | 52 | 
17 | CC(c1ccnc(Nc2nc3ccc(-c4cc(N5CC(C(F)(F)F)C5)ncn4)cc3[nH]2)c1)N1CCN(C(=O)CC(F)(F)F)CC1 (single isomer, unassigned) [Example 164.02, 3,3,3-trifluoro-1-{4-[(1R or 1S)-1-{2-[(6-{6-[3-(trifluoromethyl)azetidin-1-yl]pyrimidin-4-yl}-1H-benzimidazol-2-yl)amino]pyridin-4-yl}ethyl]piperazin-1-yl}propan-1-one] | 0.943 | 
18 | CC(C)Oc1cncnc1-c1ccc2nc(Nc3cc(C(C)N4CCN(C(=O)CC(F)(F)F)CC4)ccn3)[nH]c2c1 (single isomer, unassigned) [Example 36.02, 3,3,3-trifluoro-1-(4-{(1R or 1S)-1-[2-({6-[5-(propan-2-yloxy)pyrimidin-4-yl]-1H-benzimidazol-2-yl}amino)pyridin-4-yl]ethyl}piperazin-1-yl)propan-1-one] |  | 1.96
19 | CC(C)(C)OC(=O)N1CCN(Cc2ccnc(Nc3nc4ccc(-c5ccnc(N6CCCC6)n5)cc4[nH]3)c2)CC1 [Example 177.01, tert-butyl 4-{[2-({6-[2-(pyrrolidin-1-yl)pyrimidin-4-yl]-1H-benzimidazol-2-yl}amino)pyridin-4-yl]methyl}piperazine-1-carboxylate] | 227 | 
